In US8614234B2, “Compounds as tyrosine kinase modulators” (Allergan, Inc., priority 2009, dated 2013):

Target: PDGFβ (Homo sapiens (Human), UniProt P09619)
Experiment: PDGF stimulated Ca2+ signal in vitro (PDGFβ cellular, FLIPR, NHDF-Ad)
Type: cell-based
Conditions: PDGF stimulation 10 ng/mL, intracellular calcium

PDGFβ, sequence (P09619 33-1106): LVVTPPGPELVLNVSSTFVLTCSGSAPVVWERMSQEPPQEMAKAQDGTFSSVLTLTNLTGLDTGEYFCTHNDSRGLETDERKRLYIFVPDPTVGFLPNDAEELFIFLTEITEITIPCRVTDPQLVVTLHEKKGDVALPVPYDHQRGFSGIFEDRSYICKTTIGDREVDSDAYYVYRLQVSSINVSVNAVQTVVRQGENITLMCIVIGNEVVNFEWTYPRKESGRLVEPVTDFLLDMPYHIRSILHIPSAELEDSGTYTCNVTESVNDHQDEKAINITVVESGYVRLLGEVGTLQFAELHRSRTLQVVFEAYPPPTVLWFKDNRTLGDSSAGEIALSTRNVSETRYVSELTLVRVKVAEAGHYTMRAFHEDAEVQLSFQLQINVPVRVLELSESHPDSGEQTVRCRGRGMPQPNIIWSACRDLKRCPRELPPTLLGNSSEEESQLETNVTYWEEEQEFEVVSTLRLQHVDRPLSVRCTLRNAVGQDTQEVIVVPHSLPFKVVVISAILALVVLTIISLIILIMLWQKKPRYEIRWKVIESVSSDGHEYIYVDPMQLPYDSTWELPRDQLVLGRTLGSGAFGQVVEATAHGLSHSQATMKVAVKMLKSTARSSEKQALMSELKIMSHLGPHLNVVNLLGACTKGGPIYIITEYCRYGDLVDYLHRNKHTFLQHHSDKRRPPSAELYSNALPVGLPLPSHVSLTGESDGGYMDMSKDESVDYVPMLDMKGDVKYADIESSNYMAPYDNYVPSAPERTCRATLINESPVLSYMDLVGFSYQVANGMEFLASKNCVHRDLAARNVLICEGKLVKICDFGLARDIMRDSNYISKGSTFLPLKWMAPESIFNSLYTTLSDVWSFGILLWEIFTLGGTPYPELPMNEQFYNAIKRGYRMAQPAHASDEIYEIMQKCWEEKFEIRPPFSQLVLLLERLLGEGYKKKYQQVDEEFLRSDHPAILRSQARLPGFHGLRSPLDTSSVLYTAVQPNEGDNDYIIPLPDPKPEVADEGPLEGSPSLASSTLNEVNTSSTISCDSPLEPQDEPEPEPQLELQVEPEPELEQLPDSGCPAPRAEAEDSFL

| Compound | IC50 [nM] |
| --- | --- |
| Cc1ccc(F)c(NC(=O)Nc2ccc(Oc3ccnc(-c4cc(C(=O)NCCCO)c[nH]4)c3)cc2)c1 [Example 110, 5-{4-[4-({[(2-fluoro-5-methylphenyl)amino]carbonyl}amino)phenoxy]pyridin-2-yl}-N-(3-hydroxypropyl)-1H-pyrrole-3-carboxamide] | 32 |
| Cc1ccc(F)c(NC(=O)Nc2ccc(Oc3ccnc(-c4cc(C(=O)NCCCC(N)=O)c[nH]4)c3)cc2)c1 [Example 55, N-(4-amino-4-oxobutyl)-5-{4-[4-({[(2-fluoro-5-methylphenyl)amino]carbonyl}amino)phenoxy]pyridin-2-yl}-1H-pyrrole-3-carboxamide] | 26 |
| Cc1cccc(NC(=O)Nc2ccc(Oc3ccnc(-c4cc(C(=O)N5CCC[C@@H](O)C5)c[nH]4)c3)cc2)c1 (stereo in doubt) [Example 90, 1-{4-[(2-{4-[(3-hydroxypiperidin-1-yl)carbonyl]-1H-pyrrol-2-yl}pyridin-4-yl)oxy]phenyl}-3-(3-methylphenyl)urea] | 21 |
| Cc1cccc(NC(=O)c2cccc(Oc3ccnc(-c4cc(C(=O)O)c[nH]4)c3)c2)c1 [Example 22, 5-[4-(3-m-Tolylcarbamoyl-phenoxy)-pyridin-2-yl]-1H-pyrrole-3-carboxylic acid] | 105 |
| Cc1ccc(F)c(NC(=O)Nc2ccc(Oc3ccnc(-c4cc(C(=O)OCC(O)CO)c[nH]4)c3)cc2)c1 (stereo not shown) [Example 130, 2,3-dihydroxypropyl 5-{4-[4-({[(2-fluoro-5-methylphenyl)amino]carbonyl}amino)phenoxy]pyridin-2-yl}-1H-pyrrole-3-carboxylate] | 32 |
| Cc1ccc(F)c(NC(=O)Nc2ccc(Oc3ccnc(-c4cc(C(=O)NO)c[nH]4)c3)cc2)c1 [Example 108, 5-{4-[4-({[(2-fluoro-5-methylphenyl)amino]carbonyl}amino)phenoxy]pyridin-2-yl}-N-hydroxy-1H-pyrrole-3-carboxamide] | 43 |
| Cc1ccc(F)c(NC(=O)Nc2ccc(Oc3ccnc(-c4csc(C(=O)O)c4)c3)cc2)c1 [Example 123, 4-{4-[4-({[(2-fluoro-5-methylphenyl)amino]carbonyl}amino)phenoxy]pyridin-2-yl}thiophene-2-carboxylic acid] | 85 |
| O=C(Nc1ccc(Oc2ccnc(-c3cc(C(=O)O)c[nH]3)c2)cc1)Nc1ccc(Cl)c(C(F)(F)F)c1 [Example 121, 5-(4-{4-[({[4-chloro-3-(trifluoromethyl)phenyl]amino}carbonyl)amino]phenoxy}pyridin-2-yl)-1H-pyrrole-3-carboxylic acid] | 102 |
| Cc1ccc(F)c(NC(=O)Nc2ccc(Oc3ccnc(-c4cc(C(=O)NCCCC(=O)NCC(O)CO)c[nH]4)c3)cc2)c1 (stereo not shown) [Example 54, N-{4-[(2,3-dihydroxypropyl)amino]-4-oxobutyl}-5-{4-[4-({[(2-fluoro-5-methylphenyl)amino]carbonyl}amino)phenoxy]pyridin-2-yl}-1H-pyrrole-3-carboxamide] | 191 |
| Cc1ccc(F)c(NC(=O)Nc2ccc(Oc3ccnc(-c4cc(C(=O)NCC(O)CO)c[nH]4)c3)cc2)c1 (stereo not shown) [Example 127, N-(2,3-dihydroxypropyl)-5-{4-[4-({[(2-fluoro-5-methylphenyl)amino]carbonyl}amino)phenoxy]pyridin-2-yl}-1H-pyrrole-3-carboxamide] | 91 |
| Cc1cccc(NC(=O)Nc2ccc(Oc3ccnc(-c4cc(C(=O)NCC(O)CO)c[nH]4)c3)cc2)c1 (stereo not shown) [Example 92, N-(2,3-dihydroxypropyl)-5-{4-[4-({[(3-methylphenyl)amino]carbonyl}amino)phenoxy]pyridin-2-yl}-1H-pyrrole-3-carboxamide] | 39 |
| Cc1ccoc1C(=O)Nc1cccc(Oc2ccnc(-c3cc(C(=O)NCC(O)CO)c[nH]3)c2)c1 (stereo not shown) [Example 15, N-(2,3-dihydroxypropyl)-5-(4-{3-[(3-methyl-2-furoyl)amino]phenoxy}pyridin-2-yl)-1H-pyrrole-3-carboxamide] | 73 |
| Cc1ccoc1C(=O)Nc1cccc(Oc2ccnc(-c3cc(C(=O)N=S(C)(C)=O)c[nH]3)c2)c1 [Example 30, N-[dimethyl(oxido)-lambda˜4˜-sulfanylidene]-5-(4-{3-[(3-methyl-2-furoyl)amino]phenoxy}pyridin-2-yl)-1H-pyrrole-3-carboxamide] | 94 |
| Cc1ccc(F)c(NC(=O)Nc2ccc(Oc3ccnc(-c4cc(C(=O)O)c[nH]4)c3)cc2F)c1 [Example 96, 5-{4-[3-fluoro-4-({[(2-fluoro-5-methylphenyl)amino]carbonyl}amino)phenoxy]pyridin-2-yl}-1H-pyrrole-3-carboxylic acid] | 69 |
| Cc1ccoc1C(=O)Nc1cccc(Oc2ccnc(-c3cc(C(=O)NO)c[nH]3)c2)c1 [Example 17, N-hydroxy-5-(4-{3-[(3-methyl-2-furoyl)amino]phenoxy}pyridin-2-yl)-1H-pyrrole-3-carboxamide] | 61 |
| Cc1ccc(F)c(NC(=O)Nc2ccc(Oc3ccnc(-c4cc(C(=O)N=S(C)(C)=O)c[nH]4)c3)cc2)c1 [Example 101, N-[dimethyl(oxido)-lambda˜4˜-sulfanylidene]-5-{4-[4-({[(2-fluoro-5-methylphenyl)amino]carbonyl}amino)phenoxy]pyridin-2-yl}-1H-pyrrole-3-carboxamide] | 82 |
| Cc1ccc(F)c(NC(=O)c2cccc(Oc3ccnc(-c4cc(C(=O)O)c[nH]4)c3)c2)c1 [Example 19, 5-{4-[3-(2-Fluoro-5-methyl-phenylcarbamoyl)-phenoxy]-pyridin-2-yl}-1H-pyrrole-3-carboxylic acid] | 135 |
| Cc1cccc(NC(=O)Nc2ccc(Oc3ccnc(-c4cc(C(=O)N5CC[C@@H](O)C5)c[nH]4)c3)cc2)c1 (stereo in doubt) [Example 91, 1-{4-[(2-{4-[(3-hydroxypyrrolidin-1-yl)carbonyl]-1H-pyrrol-2-yl}pyridin-4-yl)oxy]phenyl}-3-(3-methylphenyl)urea] | 38 |
| COC(=O)[C@@H]1CCCN1CCNC(=O)c1c[nH]c(-c2cc(Oc3ccc(NC(=O)Nc4cc(C)ccc4F)cc3)ccn2)c1 [Example 102, methyl (2S)-1-(2-{[(5-{4-[4-({[(2-fluoro-5-methylphenyl)amino]carbonyl}amino)phenoxy]pyridin-2-yl}-1H-pyrrol-3-yl)carbonyl]amino}ethyl)pyrrolidine-2-carboxylate] | 8 |
| CCNC(=O)c1c[nH]c(-c2cc(Oc3ccc(NC(=O)Nc4cccc(C)c4)cc3)ccn2)c1 [Example 93, N-ethyl-5-{4-[4-({[(3-methylphenyl)amino]carbonyl}amino)phenoxy]pyridin-2-yl}-1H-pyrrole-3-carboxamide] | 14 |
| Cc1ccoc1C(=O)Nc1cccc(Oc2ccnc(-c3cc(C(=O)OCC(O)CO)c[nH]3)c2)c1 (stereo not shown) [Example 21, 2,3-dihydroxypropyl 5-(4-{3-[(3-methyl-2-furoyl)amino]phenoxy}pyridin-2-yl)-1H-pyrrole-3-carboxylate] | 39 |
| Cc1cccc(NC(=O)Nc2ccc(Oc3ccnc(-c4cc(C(=O)O)c[nH]4)c3)cc2)c1 [Example 115, 5-{4-[4-({[(3-methylphenyl)amino]carbonyl}amino)phenoxy]pyridin-2-yl}-1H-pyrrole-3-carboxylic acid] | 44 |
